Data from ChEMBL document CHEMBL1126897, “Tyrphostins. 3. Structure-activity relationship studies of alpha-substituted benzylidenemalononitrile 5-S-aryltyrphostins” (J Med Chem, 1993).

Columns and labels:
[1] = molecular target: T1, Epidermal growth factor receptor (Homo sapiens, UniProt P00533); experiment: Inhibitory concentration against EGF receptor by polyGAT phosphorylation
[2] = molecular target: T1, Epidermal growth factor receptor; experiment: Inhibitory concentration against EGF receptor by autophosphorylation
[3] = molecular target: T1, Epidermal growth factor receptor; experiment: Inhibition of polyGAT phosphorylation by EGF receptor

T1 sequence (P00533 whole entry): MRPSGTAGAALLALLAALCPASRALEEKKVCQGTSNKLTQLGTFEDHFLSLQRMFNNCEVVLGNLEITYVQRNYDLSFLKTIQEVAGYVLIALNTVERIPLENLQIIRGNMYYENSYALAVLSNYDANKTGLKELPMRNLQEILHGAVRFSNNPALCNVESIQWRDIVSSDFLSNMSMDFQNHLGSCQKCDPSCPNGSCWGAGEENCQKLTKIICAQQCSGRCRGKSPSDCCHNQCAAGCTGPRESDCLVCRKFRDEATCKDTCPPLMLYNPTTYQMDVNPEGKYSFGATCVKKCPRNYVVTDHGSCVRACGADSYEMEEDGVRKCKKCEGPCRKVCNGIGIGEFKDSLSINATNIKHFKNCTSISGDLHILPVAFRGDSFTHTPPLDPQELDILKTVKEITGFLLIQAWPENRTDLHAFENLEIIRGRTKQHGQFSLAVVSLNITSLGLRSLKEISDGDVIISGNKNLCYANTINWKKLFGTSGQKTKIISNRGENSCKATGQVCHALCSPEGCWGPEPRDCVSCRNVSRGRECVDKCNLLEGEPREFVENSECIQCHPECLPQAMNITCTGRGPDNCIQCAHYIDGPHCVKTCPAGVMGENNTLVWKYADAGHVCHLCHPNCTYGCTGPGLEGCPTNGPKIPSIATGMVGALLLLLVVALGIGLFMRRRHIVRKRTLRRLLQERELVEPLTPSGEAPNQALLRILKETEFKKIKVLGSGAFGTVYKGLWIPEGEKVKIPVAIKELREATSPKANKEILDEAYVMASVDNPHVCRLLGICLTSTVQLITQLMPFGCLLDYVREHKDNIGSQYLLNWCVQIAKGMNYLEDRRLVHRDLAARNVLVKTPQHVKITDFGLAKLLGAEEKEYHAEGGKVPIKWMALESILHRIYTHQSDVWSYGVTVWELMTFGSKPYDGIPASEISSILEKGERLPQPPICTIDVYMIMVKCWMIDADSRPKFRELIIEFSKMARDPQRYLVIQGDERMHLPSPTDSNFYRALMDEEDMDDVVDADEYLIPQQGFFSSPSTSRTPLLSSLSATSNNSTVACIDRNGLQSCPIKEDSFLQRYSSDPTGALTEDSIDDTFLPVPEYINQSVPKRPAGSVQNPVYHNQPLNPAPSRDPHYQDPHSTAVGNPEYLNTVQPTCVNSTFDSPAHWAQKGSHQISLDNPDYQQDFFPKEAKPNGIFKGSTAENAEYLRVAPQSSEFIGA

IC50 [1] | IC50 [2] | IC50 [3] | SMILES
0.94 µM | 0.64 µM |  | N#C/C(=C\c1cc(O)c(O)c(CSCc2ccccc2)c1)C(N)=O
14.8 µM | 16 µM |  | COc1cc(/C=C(\C#N)C(N)=O)cc(CSCc2ccc(Cl)cc2)c1O
6.5 µM | 3.2 µM |  | N#C/C(=C\c1cc(O)c(O)c(CSc2nc3ccccc3s2)c1)C(N)=O
96 µM | 54 µM |  | COc1cc(C=C(C#N)C#N)cc(CSCC(=O)O)c1O
85 µM | 23 µM |  | COc1cc(C=C(C#N)C#N)cc(CS(=O)(=O)c2ccc(C)cc2)c1O
75 µM | 14.5 µM |  | COc1cc(/C=C(\C#N)C(N)=O)cc(CSc2nc3ccccc3[nH]2)c1O
 |  | 125 µM | COc1cc(/C=C(\C#N)C(N)=O)cc(CSCCC(=O)O)c1O
4.4 µM | > 83 µM |  | COc1cc(/C=C(\C#N)C(N)=O)cc(CSc2nc3cc(Cl)ccc3s2)c1O
6.6 µM | 1.7 µM |  | COc1cc(/C=C(\C#N)C(N)=O)cc(CSc2ccc3ccccc3c2)c1O
2.9 µM | 0.4 µM |  | COc1cc(/C=C(\C#N)C(N)=O)cc(CSc2ccccc2)c1O
0.75 µM | 4.5 µM |  | COc1cc(/C=C(\C#N)C(=O)c2ccc(O)c(O)c2)cc(CSCc2ccccc2)c1O
36 µM | 8 µM |  | COc1cc(C=C(C#N)C#N)cc(CSc2ccccc2C(=O)O)c1O
2.5 µM | 1 µM |  | COc1cc(/C=C(\C#N)C(N)=O)cc(CSCc2ccccc2Cl)c1O
37 µM | 0.71 µM |  | COc1cc(/C=C(\C#N)C(N)=O)cc(CSc2ccccc2C(=O)O)c1O
12.5 µM | 5.3 µM |  | COc1cc(/C=C(\C#N)C(N)=O)cc(CSc2nc3ccccc3o2)c1O
 | > 167 µM | > 100 µM | CCOc1ccc2nc(SCc3cc(/C=C(\C#N)C(N)=O)cc(OC)c3O)sc2c1
5.6 µM | 22 µM |  | COc1cc(/C=C(\C#N)C(N)=O)cc(CSc2ccccc2NC(C)=O)c1O
370 µM | 6.7 µM |  | COc1cc(C=C(C#N)C#N)cc(CSc2ccccc2)c1O
2.5 µM | 2.5 µM |  | COc1cc(/C=C(\C#N)C(N)=O)cc(CSc2ccc(O)cc2)c1O

SMILES | IC50 [1] | IC50 [2] | IC50 [3]
Cc1cc(C=C(C#N)C#N)cc(O)c1O | 5.6 µM | 62 µM | 
COc1cc(C=C(C#N)C#N)cc(C)c1O | 2600 µM | 87 µM | 
COc1cc(/C=C(\C#N)C(N)=O)cc(CSc2ccccn2)c1O | 25 µM | 3.4 µM | 
COc1cc(/C=C(\C#N)C(N)=O)cc(CSCc2ccccc2)c1O | 1.95 µM | 0.9 µM | 
